# According to ChEMBL document CHEMBL1149599, “Design, syntheses, and antitumor activity of novel chromone and aurone derivatives” (Bioorg Med Chem, 2007):
# Key:
# [1] = Antiproliferative activity against human HCCLM7 cells after 72 hrs by MTT method; type: functional, cell-based; conditions: HCCLM7, 72 h
# HEp-2 [2] = assay: Antiproliferative activity against human Hep2 cells after 72 hrs by MTT method; type: functional, cell-based; conditions: HEp-2, 72 h
# cells = type: functional, cell-based; conditions: Homo sapiens, MDA-MB-435S, 72 h
# Description: Antiproliferative activity against human MDA-MB-435S cells after 72 hrs by MTT method
# SW480 = assay: Antiproliferative activity against human SW480 cells after 72 hrs by MTT method; type: functional, cell-based; conditions: SW480, 72 h
# HEp-2 [3] = assay: Cell cycle arrest in Hep2 cells assessed as accumulation at subG0 phase at 5.7 uM after 24 hrs; type: functional, Homo sapiens
# HEp-2 [4] = assay: Cell cycle arrest in Hep2 cells assessed as accumulation at G0/G1 phase at 5.7 uM after 24 hrs; type: functional, Homo sapiens
# HEp-2 [5] = assay: Cell cycle arrest in Hep2 cells assessed as accumulation at S phase at 5.7 uM after 24 hrs; type: functional, Homo sapiens
# HEp-2 [6] = assay: Cell cycle arrest in Hep2 cells assessed as accumulation at G2/M phase at 5.7 uM after 24 hrs; type: functional, Homo sapiens
# HEp-2 [7] = assay: Cell cycle arrest in Hep2 cells assessed as accumulation at subG0 phase at 5.7 uM after 36 hrs; type: functional, Homo sapiens
# HEp-2 [8] = assay: Cell cycle arrest in Hep2 cells assessed as accumulation at G0/G1 phase at 5.7 uM after 36 hrs; type: functional, Homo sapiens
# HEp-2 [9] = assay: Cell cycle arrest in Hep2 cells assessed as accumulation at S phase at 5.7 uM after 36 hrs; type: functional, Homo sapiens
# HEp-2 [10] = assay: Cell cycle arrest in Hep2 cells assessed as accumulation at […] phase at 5.7 uM after 36 hrs; type: functional, Homo sapiens
# HEp-2 [11] = assay: Cell cycle arrest in Hep2 cells assessed as accumulation at subG0 phase at 5.7 uM after 48 hrs; type: functional, Homo sapiens
# HEp-2 [12] = assay: Cell cycle arrest in Hep2 cells assessed as accumulation at G0/G1 phase at 5.7 uM after 48 hrs; type: functional, Homo sapiens
# HEp-2 [13] = assay: Cell cycle arrest in Hep2 cells assessed as accumulation at S phase at 5.7 uM after 48 hrs; type: functional, Homo sapiens
# HEp-2 [14] = assay: Cell cycle arrest in Hep2 cells assessed as accumulation at […] phase at 5.7 uM after 48 hrs; type: functional, Homo sapiens
# HEp-2 [15] = assay: Cell cycle arrest in Hep2 cells assessed as accumulation at subG0 phase at 4.7 uM after 24 hrs; type: functional, Homo sapiens
# HEp-2 [16] = assay: Cell cycle arrest in Hep2 cells assessed as accumulation at G0/G1 phase at 4.7 uM after 24 hrs; type: functional, Homo sapiens
# HEp-2 [17] = assay: Cell cycle arrest in Hep2 cells assessed as accumulation at S phase at 4.7 uM after 24 hrs; type: functional, Homo sapiens
# HEp-2 [18] = assay: Cell cycle arrest in Hep2 cells assessed as accumulation at G2/M phase at 4.7 uM after 24 hrs; type: functional, Homo sapiens
# HEp-2 [19] = assay: Cell cycle arrest in Hep2 cells assessed as accumulation at subG0 phase at 4.7 uM after 36 hrs; type: functional, Homo sapiens
# HEp-2 [20] = assay: Cell cycle arrest in Hep2 cells assessed as accumulation at G0/G1 phase at 4.7 uM after 36 hrs; type: functional, Homo sapiens
# HEp-2 [21] = assay: Cell cycle arrest in Hep2 cells assessed as accumulation at S phase at 4.7 uM after 36 hrs; type: functional, Homo sapiens
# HEp-2 [22] = assay: Cell cycle arrest in Hep2 cells assessed as accumulation at G2/M phase at 4.7 uM after 36 hrs; type: functional, Homo sapiens
# HEp-2 [23] = assay: Cell cycle arrest in Hep2 cells assessed as accumulation at subG0 phase at 4.7 uM after 48 hrs; type: functional, Homo sapiens
# HEp-2 [24] = assay: Cell cycle arrest in Hep2 cells assessed as accumulation at G0/G1 phase at 4.7 uM after 48 hrs; type: functional, Homo sapiens
# HEp-2 [25] = assay: Cell cycle arrest in Hep2 cells assessed as accumulation at S phase at 4.7 uM after 48 hrs; type: functional, Homo sapiens
# HEp-2 [26] = assay: Cell cycle arrest in Hep2 cells assessed as accumulation at G2/M phase at 4.7 uM after 48 hrs; type: functional, cell-based, Homo sapiens
smiles,measurement,setting,value
Cc1nnc(Sc2coc3ccccc3c2=O)s1,IC50,[1],> 50 µM
same,IC50,HEp-2 [2],40.2 µM
same,IC50,cells,> 50 µM
same,IC50,SW480,> 50 µM
CN1CCN(/C=C2\Oc3ccccc3C2=O)CC1,IC50,[1],> 50 µM
same,IC50,HEp-2 [2],> 50 µM
same,IC50,cells,40.3 µM
same,IC50,SW480,> 50 µM
O=C1/C(=C/N2CCN(Cc3ccccc3)CC2)Oc2ccccc21,IC50,[1],9.6 µM
same,IC50,HEp-2 [2],5.7 µM
same,IC50,cells,7.6 µM
same,IC50,SW480,6.6 µM
same,Activity,HEp-2 [3],4.69%
same,Activity,HEp-2 [4],44.87%
same,Activity,HEp-2 [5],22.98%
same,Activity,HEp-2 [6],32.14%
same,Activity,HEp-2 [7],4.93%
same,Activity,HEp-2 [8],58.7%
same,Activity,HEp-2 [9],23.84%
same,Activity,HEp-2 [10],17.46%
same,Activity,HEp-2 [11],18.2%
same,Activity,HEp-2 [12],75.85%
same,Activity,HEp-2 [13],17.83%
same,Activity,HEp-2 [14],6.32%
O=c1c(Sc2nc3ccccc3[nH]2)coc2ccccc12,IC50,[1],> 50 µM
same,IC50,HEp-2 [2],42.6 µM
same,IC50,cells,30.3 µM
same,IC50,SW480,> 50 µM
O=C1/C(=C/N2CCN(c3ccccc3)CC2)Oc2ccccc21,IC50,[1],45.1 µM
same,IC50,HEp-2 [2],27.7 µM
same,IC50,cells,25.1 µM
same,IC50,SW480,36.4 µM
O=C1/C(=C/N2CCCCC2)Oc2ccccc21,IC50,[1],> 50 µM
same,IC50,HEp-2 [2],> 50 µM
same,IC50,cells,47.8 µM
same,IC50,SW480,> 50 µM
Nc1nnc(Sc2coc3ccccc3c2=O)s1,IC50,[1],> 50 µM
same,IC50,HEp-2 [2],47.7 µM
same,IC50,cells,> 50 µM
same,IC50,SW480,> 50 µM
O=c1c(Sc2nc3ccccc3s2)coc2ccccc12,IC50,[1],> 50 µM
same,IC50,HEp-2 [2],31.3 µM
same,IC50,cells,17.1 µM
same,IC50,SW480,45.2 µM
O=C1/C(=C/N2CCN(CC(c3ccc(F)cc3)c3ccc(F)cc3)CC2)Oc2ccccc21,Activity,HEp-2 [15],0%
same,Activity,HEp-2 [16],55.9%
same,Activity,HEp-2 [17],25.01%
same,Activity,HEp-2 [18],19.09%
same,Activity,HEp-2 [19],5.55%
same,IC50,[1],12.1 µM
same,IC50,HEp-2 [2],4.7 µM
same,IC50,cells,4.1 µM
same,IC50,SW480,13.1 µM
same,Activity,HEp-2 [20],63.03%
same,Activity,HEp-2 [21],18.45%
same,Activity,HEp-2 [22],18.52%
same,Activity,HEp-2 [23],16.46%
same,Activity,HEp-2 [24],73.71%
same,Activity,HEp-2 [25],20.89%
same,Activity,HEp-2 [26],5.41%
Cc1nnc(Sc2coc3ccccc3c2=O)o1,IC50,[1],> 50 µM
same,IC50,HEp-2 [2],> 50 µM
same,IC50,cells,> 50 µM
same,IC50,SW480,> 50 µM
O=c1[nH]cc(F)c(=O)[nH]1 [FLUOROURACIL],IC50,[1],18.6 µM
same,IC50,HEp-2 [2],129 µM
same,IC50,cells,14.5 µM
same,IC50,SW480,8.1 µM
O=c1c(Sc2nc3ccccc3o2)coc2ccccc12,IC50,[1],> 50 µM
same,IC50,HEp-2 [2],29.6 µM
same,IC50,cells,26.1 µM
same,IC50,SW480,36.4 µM
Cc1cc(C)nc(Sc2coc3ccccc3c2=O)n1,IC50,[1],> 50 µM
same,IC50,HEp-2 [2],> 50 µM
same,IC50,cells,> 50 µM
same,IC50,SW480,> 50 µM
CN1CCN(/C=C2\Oc3ccccc3C2=O)C(c2ccccc2)C1 (stereo not given),IC50,[1],> 50 µM
same,IC50,HEp-2 [2],> 50 µM
same,IC50,cells,> 50 µM
same,IC50,SW480,> 50 µM
